Reference: US5702923A, “Method of making a lactococcal bacteriocin” (Quest International Flavors & Food Ingredients Company, a …, priority 1992, dated 1997)

What was measured:
[1] = test system: strain NRRL-B-18535; assay: Sensitivity of the producer strain to nisin; assay type: cell-based, Lactococcus lactis
Source text: Inhibitory spectrum of LL-1. The plate assay system was used to evaluate the spectrum of bacteriocin activity. […] Strains of Streptococcus mutans, S. sanguis, S. faecalis and Listeria monocytogenes were not sensitive in this test. The strain NRRL-B-18535 was resistant to nisin.

[2] = test system: Listeria monocytogenes; assay: Spot assay of filter sterilized supernatant (LL-1 broth) on indicator lawn; assay type: cell-based; settings: as crude filter sterilized broth or dried powder from the broth, not purified
Method: To produce the bacteriocin, 500 ml of MRS broth (Difco) was inoculated at 1% with an 8 hour old culture of LLA 1.0 grown in MRS broth (Difco, Detroit, Mich.) and was incubated statically at 32° C. for 24 hours. After 24 hours the cells were removed by centrifugation at 16,000×g for 20 minutes at 4° C. The supernatant was filtered through a 0.22 micron (pore size) filter (Millipore Corp. Bedford, Mass.). The supernatant was assayed for bacteriocin activity by spotting 5 microliters of this supernatant material onto various media overlaid with soft agar seeded with different indicator cells. These assay plates were incubated at 35° C. or 32° C., respectively. After 24 hours the plates were examined, clear zones associated with the spot were recorded as positive (growth inhibition) and negative (no growth inhibition).

[3] = test system: L. monocytogenes 69; assay: Inhibition of Listeria, LL-1 compared with nisin; assay type: cell-based, Listeria monocytogenes; parameters: key: + = Inhibition; - = No inhibition; settings: 370 IU/ml, nisin purified from the broth
Source text: This is shown by the following data in Table 5.

Substance: nisin
- sensitivity of strain NRRL-B-18535 to nisin [1]: resistant
- activity against Listeria monocytogenes, in words [2]: not effective
- Inhibition of L. monocytogenes 69 [3]: -
